Data from ChEMBL document CHEMBL1143727, “Terpenoids from the medicinal plant Maytenus ilicifolia” (J Nat Prod, 2007).
The source made the active and inactive calls. No cut-off for these calls is given here.

test system: Saccharomyces cerevisiae; experiment: Antimicrobial activity against DNA damage check point deffective Saccharomyces cerevisiae mutants; type: functional, organism-based

| SMILES | Activity |
| --- | --- |
| C=C(C)C1CCC(C)[C@@]23CC=C(C)[C@]2(C1)Oc1c(cc2c(c1C)C=CC1[C@@]2(C)CC[C@@]2(C)C4C[C@@H](C)C(=O)C[C@]4(C)CC[C@]12C)O3 (some centres undefined) | inactive |
| COc1cc(C(=O)Oc2c(O)cc3c(c2C)C(O)CC2[C@@]3(C)CC[C@@]3(C)C4C[C@@H](C)C(=O)C[C@]4(C)CC[C@]23C)ccc1O (some centres undefined) | inactive |
| COC(=O)[C@]1(C)CC[C@](C)(CC[C@]2(C)C(/C=C\c3ccc4c(c3C)O[C@]3(O)C(=O)C=C5C(=CC=C6[C@@]5(C)CC[C@@]5(C)C7C[C@@H](C)C(=O)C[C@]7(C)CC[C@]65C)[C@]3(C)O4)[C@@H](C)CC[C@@H]2C)CC1 (some centres undefined) | inactive |
| C=C(C)C1CCC(C)[C@@]23CC=C(C)[C@]2(C1)Oc1cc2c(c(C)c1O3)C(=O)C=C1[C@@]2(C)CC[C@@]2(C)C3C[C@@H](C)C(=O)C[C@]3(C)CC[C@]12C (some centres undefined) | inactive |
